Where “and” joins values, the source holds several entries; their conditions need not be identical. Equal entries are not always repeated. Entries after “also recorded” stand apart in the source; their conditions may differ. Where two headings read alike, the source gives them in different places. Peptide text beside a SMILES is read from it. * marks the point of attachment. Cbz = O=C(OCc1ccccc1)*
Assays:
[1] = tested on: K562 cells; assay: K562 cell viability, CCK-8 assay; type: cell-based; details: Homo sapiens, 48 h, read-out: IC50 (half maximal inhibitory concentration), K562 proliferation
Method: K562 cells (5 × 10^3 cells per well) were grown in 96-well plates with 100 μl medium. After the treatment with the PROTACs at various concentrations (0, 0.01, 0.1, 0.25, 0.5, 0.75, 1, and 2.5 nM) for 48 h, CCK-8 solution was added to each well and incubated for 2 h at 37 °C, and the number of viable cells was determined by measuring the absorbance of the converted dye at a 450 nm wavelength, according to the manufacturer’s instructions (Yeasen). Each experiment was performed at least three times independently.

[2] = target: T1, BCR–ABL (Homo sapiens, UniProt P00519); assay: BCR–ABL degradation in K562 cells (immunoblot); type: cell-based; details: 5 nM, 48 h, read-out: DMax (maximum degradation percentage in comparison with control) at 5 nM
T1 construct: assessed in human CML K562 cells bearing BCR–ABL; host or cells: K562
Method: (§1) The ability of Arg-PEGn-Dasa PROTACs to induce BCR–ABL degradation was assessed in human CML K562 cells bearing BCR–ABL. […] We next evaluated the impact of Arg-PEGn-Dasa on cell proliferation in K562 cells using Cell Counting Kit-8 (CCK-8) assay.
(§2) Cells were collected and lysed in radioimmunoprecipitation assay buffer (50 mM Tris–HCl [pH 8.0], 1% NP-40, 150 mM NaCl, 0.1% SDS, 0.5% sodium deoxycholate, and 1× complete protease inhibitor cocktail) on ice for 20 min and centrifuged at 15,000 rpm for 10 min at 4 °C to collect the supernatant. After protein concentrations were measured by the bicinchoninic acid protein assay kit (Thermo Scientific), samples with equal amounts of proteins were mixed with loading buffer and denatured by boiling. Protein lysates were resolved by SDS-PAGE and transferred to polyvinylidene fluoride membranes. Then, the membranes were blocked in 5% nonfat milk for 1 h at room temperature, incubated with a primary antibody overnight at 4 °C, and then incubated with horseradish peroxidase–conjugated secondary antibodies for 1 h at room temperature. Subsequently, the membranes were probed with ECL reagent (Millipore), and proteins were visualized by a Tanon-5200 Automatic Chemiluminescence Imaging Analysis System (Tanon).

[3] = target: T2, BCR–ABL (Homo sapiens, UniProt P00519+P11274); assay: BCR–ABL degradation in K562 cells (immunoblot); type: cell-based; set-up: assessed in human CML K562 cells bearing BCR–ABL; host or cells: K562; details: for time at which BCR–ABL reduction appears: 1 nM; for DC50: immunoblot, read-out: DC50 (drug concentration that degrades 50% protein)
Method: as §1, §2

[4] = tested on: K562 cells; assay: K562 cell growth after drug washout (CCK-8); type: cell-based, human; details: 1 nM 48 h, drug-free medium 1 to 4 days
Method: Figure 2 Arg-PEG (1–4)-Dasa induced the degradation of BCR–ABL through the proteasome.A, K562 cells were incubated with Arg-PEG (1–4)-Dasa bearing different numbers of PEG linker at indicated concentration for 48 h. The expression of various proteins indicated was determined by immunoblotting. B, K562 cell viability was examined using CCK-8 assays after the treatment with Arg-PEG (1–4)-Dasa for 48 h at various concentrations (0, 0.01, 0.1, 0.25, 0.5, 0.75, 1, and 2.5 nM). C, immunoblot analysis of the indicated proteins in K562 cells treated with various compounds at 1 nM for 48 h. D, immunoblot analysis of the proteins indicated in K562 cells treated with gradually increasing doses of Arg-PEG1-Dasa for 48 h. E, immunoblot analysis of the indicated proteins in K562 cells treated with DMSO, Arg-PEG1-Dasa, Dasa, or NH2-PEG1-Dasa at 1 nM for 48 h. F, immunoblot analysis of the indicated proteins in K562 cells pretreated with Dasa or NH2-PEG1-Dasa (1 nM) for 2 h followed by Arg-PEG1-Dasa treatment at 1 nM for 48 h. G and H, K562 cells were treated with indicated compounds at 1 nM for 2 days, following washout and incubation compound-free medium. G, cell growth was detected using CCK-8 assays at the indicated times. H, the protein level indicated was tested with immunoblot. […]

[5] = tested on: K562 xenograft; assay: K562 CML xenograft mouse model, tumor growth; type: in vivo; details: nude mice, 10 mg/kg i.p. every other day, 10 doses, day 27
Method: (§3) To evaluate the effects of the N-end rule–based PROTAC on tumor growth in vivo, we set up a K562 CML xenograft mouse model. K562 cells were subcutaneously implanted into the right flank of female nude mice. When the tumors reached a palpable volume of about 50 to 80 mm^3 at day 7, the mice bearing K562 tumors were then divided into two groups randomly and administered every other day with either vehicle or Arg-PEG1-Dasa (10 mg/kg) for total 10 doses by intraperitoneal injection. Tumor volumes were measured at indicated time with calipers. When sacrificed on day 27, the tumors were harvested and photographed (Fig. 6A). The amount of BCR–ABL protein in vivo upon Arg-PEG1-Dasa treatment was examined in K562 xenograft mouse model using the immunohistochemistry (Fig. 6B) and immunoblot (Fig. 6C). […]. Further studies are needed to optimize PROTAC or administration strategy to achieve better therapeutic effects.
(§4) K562 cells (1 × 10^7 cells/200 μl) were subcutaneously injected into the right flank of 4-week-old female nude mice. […]. The drugs were subsequently administered by i.p. injection every other day with either vehicle, Arg-PEG1-Dasa, or Dasa (10 mg/kg) for total 10 doses. The growth of tumors in mice was measured with a Vernier caliper. The tumor volume was determined using the formula volume = 0.5 × (length) × (width)^2. […]

[6] = tested on: pSTAT5; assay: STAT5 phosphorylation after drug washout (immunoblot); type: cell-based, human; details: K562 cells, 1 nM 2 days, compound-free medium
Method: For controls, we also examined the activity of the PROTAC without the single amino acid (an intermediate product NH2-PEG1-Dasa, Fig. S1A) or Dasa alone on cell viability of K562 cells for 48 h. […] Moreover, the ability of Arg-PEG1-Dasa–mediated degradation of BCR–ABL was mitigated by cotreatment with excess Dasa or NH2-PEG1-Dasa in the competition assay (Fig. 2F). One advantage of PROTACs versus traditional inhibitors is that only the transient drug–target interaction is needed for its target suppression.
as §2, with “Subsequently, the membranes were probed with ECL reagent (Millipore), and proteins were visualized by a Tanon-5200 Automatic Chemiluminescence Imaging Analysis System (Tanon).” left out

[7] = Body weight of mice in K562 xenograft model; type: in vivo
Method: as §3, §4

[8] = target: T2, BCR–ABL; assay: BCR–ABL protein in K562 xenograft tumors (immunohistochemistry, immunoblot); details: nude mice, 10 mg/kg i.p. every other day, 10 doses, IHC and immunoblot
Method: To evaluate the effects of the N-end rule–based PROTAC on tumor growth in vivo, we set up a K562 CML xenograft mouse model. K562 cells were subcutaneously implanted into the right flank of female nude mice. […] Tumor volumes were measured at indicated time with calipers. When sacrificed on day 27, the tumors were harvested and photographed (Fig. 6A).
Cells were collected and lysed in radioimmunoprecipitation assay buffer (50 mM Tris–HCl [pH 8.0], 1% NP-40, 150 mM NaCl, 0.1% SDS, 0.5% sodium deoxycholate, and 1× complete protease inhibitor cocktail) on ice for 20 min and centrifuged at 15,000 rpm for 10 min at 4 °C to collect the supernatant. After protein concentrations were measured by the bicinchoninic acid protein assay kit (Thermo Scientific), samples with equal amounts of proteins were mixed with loading buffer and denatured by boiling. Protein lysates were resolved by SDS-PAGE and transferred to polyvinylidene fluoride membranes. Then, the membranes were blocked in 5% nonfat milk for 1 h at room temperature, incubated with a primary antibody overnight at 4 °C, and then incubated with horseradish peroxidase–conjugated secondary antibodies for 1 h at room temperature. Subsequently, the membranes were probed with ECL reagent (Millipore), and proteins were visualized by a Tanon-5200 Automatic Chemiluminescence Imaging Analysis System (Tanon). […]

[9] = tested on: glutathione-S-transferase-BCR–ABL; assay: Ubiquitination assay of GST-BCR–ABL in HEK293T cells (denaturing IP); type: cell-based, human; details: HEK293T cells coexpressing GST-BCR–ABL and myc-Ub, 48 h
Method: To determine the degradation pathway of BCR–ABL induced by PROTAC, we added lysosome acidification inhibitor chloroquine or proteasome inhibitor MG132 into Arg-PEG1-Dasa–treated K562 cells. […] To ascertain that Arg-PEG1-Dasa induced BCR–ABL turnover, we monitored the degradation kinetics of BCR–ABL with or without the PROTAC treatment. K562 cells were treated with cycloheximide to block protein synthesis and sampled at various time points for BCR–ABL levels. […] To further evaluate the involvement of the proteasome in PROTAC-induced degradation, we also added the proteasome inhibitor MG132 in the reaction. […] We next sought to investigate the Arg-PEG1-Dasa–induced ubiquitination of BCR–ABL.
Ubiquitination of BCR–ABL was detected using denatured immunoprecipitation. Cells were lysed in SDS-denaturing buffer (50 mM Tris–HCl [pH 7.4], 150 mM NaCl, 1% NP-40, 1% SDS, and 0.5% sodium deoxycholate) and boiled for 10 min. Cell lysates were then diluted 10-fold in native lysis buffer (50 mM Tris–HCl [pH 7.4], 150 mM NaCl, 1% NP-40, and 0.5% sodium deoxycholate). After centrifugation at 15,000 rpm for 10 min, the supernatants were immunoprecipitated using glutathione-Sepharose 4B beads (GE Healthcare) and incubated for 2 h at 4 °C. Beads were then washed five times using the native lysis buffer. […]

T2 sequence (P11274+P00519 fused): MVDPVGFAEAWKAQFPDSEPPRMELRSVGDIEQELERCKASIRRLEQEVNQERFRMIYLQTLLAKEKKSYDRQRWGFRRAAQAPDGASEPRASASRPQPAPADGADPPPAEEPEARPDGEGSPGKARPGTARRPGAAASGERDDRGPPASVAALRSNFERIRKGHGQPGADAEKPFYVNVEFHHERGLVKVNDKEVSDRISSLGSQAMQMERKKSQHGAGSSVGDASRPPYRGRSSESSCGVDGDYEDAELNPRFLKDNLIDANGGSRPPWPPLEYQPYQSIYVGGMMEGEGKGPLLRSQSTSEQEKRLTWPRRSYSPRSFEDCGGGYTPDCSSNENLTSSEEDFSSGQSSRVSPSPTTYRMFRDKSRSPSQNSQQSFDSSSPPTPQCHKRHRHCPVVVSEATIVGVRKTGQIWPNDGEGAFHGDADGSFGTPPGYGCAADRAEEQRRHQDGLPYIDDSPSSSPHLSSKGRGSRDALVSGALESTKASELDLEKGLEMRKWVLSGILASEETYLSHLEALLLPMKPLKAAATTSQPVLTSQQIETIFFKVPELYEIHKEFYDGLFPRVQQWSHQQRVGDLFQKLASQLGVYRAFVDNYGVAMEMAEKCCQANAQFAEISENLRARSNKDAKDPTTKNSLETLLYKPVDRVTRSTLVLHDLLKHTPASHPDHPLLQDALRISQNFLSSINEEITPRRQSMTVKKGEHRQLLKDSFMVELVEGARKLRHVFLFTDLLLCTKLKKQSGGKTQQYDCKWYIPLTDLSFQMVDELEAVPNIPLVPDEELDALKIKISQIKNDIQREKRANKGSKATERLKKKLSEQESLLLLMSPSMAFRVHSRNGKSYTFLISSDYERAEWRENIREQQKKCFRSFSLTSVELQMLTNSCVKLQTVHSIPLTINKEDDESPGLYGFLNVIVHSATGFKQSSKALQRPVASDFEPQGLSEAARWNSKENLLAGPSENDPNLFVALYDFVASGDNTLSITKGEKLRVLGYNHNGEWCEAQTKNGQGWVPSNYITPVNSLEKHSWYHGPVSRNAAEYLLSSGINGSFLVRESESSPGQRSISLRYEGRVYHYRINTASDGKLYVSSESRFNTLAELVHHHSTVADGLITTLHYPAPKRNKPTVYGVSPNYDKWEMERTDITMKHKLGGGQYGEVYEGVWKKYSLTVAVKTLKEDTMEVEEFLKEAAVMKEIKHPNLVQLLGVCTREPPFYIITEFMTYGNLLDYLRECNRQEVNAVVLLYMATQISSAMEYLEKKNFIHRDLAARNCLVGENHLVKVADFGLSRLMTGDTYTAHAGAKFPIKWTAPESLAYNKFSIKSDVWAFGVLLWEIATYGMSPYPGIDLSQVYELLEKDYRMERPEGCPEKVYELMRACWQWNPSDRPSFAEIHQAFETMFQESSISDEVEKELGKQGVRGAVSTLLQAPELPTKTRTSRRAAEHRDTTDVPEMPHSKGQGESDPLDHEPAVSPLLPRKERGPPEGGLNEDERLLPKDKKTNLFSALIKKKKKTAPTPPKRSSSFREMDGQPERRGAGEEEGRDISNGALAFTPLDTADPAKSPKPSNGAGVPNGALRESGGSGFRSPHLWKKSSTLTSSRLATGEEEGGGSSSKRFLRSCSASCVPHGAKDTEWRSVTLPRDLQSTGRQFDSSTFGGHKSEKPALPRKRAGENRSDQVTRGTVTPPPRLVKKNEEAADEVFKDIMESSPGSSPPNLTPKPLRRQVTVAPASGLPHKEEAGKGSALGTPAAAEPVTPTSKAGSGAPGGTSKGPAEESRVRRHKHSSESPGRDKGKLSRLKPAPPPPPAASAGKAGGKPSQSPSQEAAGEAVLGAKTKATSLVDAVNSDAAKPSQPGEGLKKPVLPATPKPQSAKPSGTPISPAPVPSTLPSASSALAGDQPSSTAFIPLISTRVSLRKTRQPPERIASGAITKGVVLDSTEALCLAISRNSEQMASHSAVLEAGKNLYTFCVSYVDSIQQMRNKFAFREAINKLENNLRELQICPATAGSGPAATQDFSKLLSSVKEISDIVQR
T1 sequence (P00519 whole entry, looked up): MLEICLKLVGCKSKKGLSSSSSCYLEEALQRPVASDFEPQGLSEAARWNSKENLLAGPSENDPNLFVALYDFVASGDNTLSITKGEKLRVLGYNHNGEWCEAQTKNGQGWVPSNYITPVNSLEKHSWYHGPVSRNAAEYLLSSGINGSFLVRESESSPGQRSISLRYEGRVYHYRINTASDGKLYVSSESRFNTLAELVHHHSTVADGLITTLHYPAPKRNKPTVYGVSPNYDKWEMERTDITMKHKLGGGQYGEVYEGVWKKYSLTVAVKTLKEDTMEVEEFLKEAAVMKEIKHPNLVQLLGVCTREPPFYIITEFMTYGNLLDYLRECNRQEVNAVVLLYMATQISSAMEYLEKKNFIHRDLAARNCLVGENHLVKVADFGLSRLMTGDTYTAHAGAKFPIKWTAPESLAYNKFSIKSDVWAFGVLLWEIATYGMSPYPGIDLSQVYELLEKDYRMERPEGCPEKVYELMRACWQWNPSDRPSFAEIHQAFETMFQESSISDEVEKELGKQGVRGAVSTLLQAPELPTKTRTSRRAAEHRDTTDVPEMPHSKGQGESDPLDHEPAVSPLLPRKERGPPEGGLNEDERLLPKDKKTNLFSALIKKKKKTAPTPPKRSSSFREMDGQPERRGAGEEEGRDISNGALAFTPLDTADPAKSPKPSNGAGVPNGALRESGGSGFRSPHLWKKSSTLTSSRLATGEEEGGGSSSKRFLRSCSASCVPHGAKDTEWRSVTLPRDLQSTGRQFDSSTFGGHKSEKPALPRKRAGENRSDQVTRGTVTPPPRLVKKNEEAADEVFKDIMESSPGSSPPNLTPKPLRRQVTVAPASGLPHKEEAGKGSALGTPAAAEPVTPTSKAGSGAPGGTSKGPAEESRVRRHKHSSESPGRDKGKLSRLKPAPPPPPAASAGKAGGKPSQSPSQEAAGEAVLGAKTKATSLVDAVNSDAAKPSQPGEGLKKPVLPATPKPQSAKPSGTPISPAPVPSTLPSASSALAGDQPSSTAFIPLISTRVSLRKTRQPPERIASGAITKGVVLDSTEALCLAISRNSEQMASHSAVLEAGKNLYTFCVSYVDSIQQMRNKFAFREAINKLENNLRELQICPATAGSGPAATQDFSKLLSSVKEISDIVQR

| Compound | IC50 [1] [nM] | Dmax at 0.005 µM [2] [%] | time at which BCR–ABL reduction appears [3] [h] | DC50 ([3]; 48 h) | further results |
| --- | --- | --- | --- | --- | --- |
| Cc1nc(Nc2ncc(C(=O)Nc3c(C)cccc3Cl)s2)cc(N2CCN(CCOC(=O)CCOCCOCCOCCOCCNC(=O)C(N)CCCNC(=N)N)CC2)n1 (stereo not shown) [Arg-PEG4-Dasa] | 0.524 |  |  |  |  |
| Cc1nc(Nc2ncc(C(=O)Nc3c(C)cccc3Cl)s2)cc(N2CCN(CCOC(=O)CCOCCNC(=O)[C@@H](N)CCCCN)CC2)n1 [Lys-PEG1-Dasa] | 0.457 | 99.1 | 48 | 0.981 nM | DC50 ([3]; 48 h, listed as Lys-based PROTAC): 0.98 nM |
| Cc1nc(Nc2ncc(C(=O)Nc3c(C)cccc3Cl)s2)cc(N2CCN(CCOC(=O)CCOCCNC(=O)[C@@H](N)Cc3ccccc3)CC2)n1 [Phe-PEG1-Dasa] | 0.294 | 81 | 36 | 1.56 nM | DC50 ([3]; 48 h, listed as Phe-based PROTAC): 1.56 nM |
| Cc1nc(Nc2ncc(C(=O)Nc3c(C)cccc3Cl)s2)cc(N2CCN(CCOC(=O)CCOCCOCCNC(=O)C(N)CCCNC(=N)N)CC2)n1 (stereo not shown) [Arg-PEG2-Dasa] | 0.53 |  |  |  |  |
| Cc1nc(Nc2ncc(C(=O)Nc3c(C)cccc3Cl)s2)cc(N2CCN(CCO)CC2)n1 [Dasa, dasatinib, reference compound] |  |  |  |  | cell growth after drug removal [4]: gradually resumed; also recorded: rapid recovery; tumor growth [5]: potent tumor growth inhibition; pSTAT5 / STAT5 phosphorylation after drug withdrawal [6]: gradually recovered; body weight / tolerability ([7]; mouse, in vivo, ip, 10 mg/kg): without significant loss of body weight |
| Cc1nc(Nc2ncc(C(=O)Nc3c(C)cccc3Cl)s2)cc(N2CCN(CCOC(=O)CCOCCOCCOCCNC(=O)C(N)CCCNC(=N)N)CC2)n1 (stereo not shown) [Arg-PEG3-Dasa] | 0.48 |  |  |  |  |
| Cc1nc(Nc2ncc(C(=O)Nc3c(C)cccc3Cl)s2)cc(N2CCN(CCOC(=O)CCOCCNC(=O)C(N)CCCNC(=N)N)CC2)n1 (stereo not shown) [Arg-PEG1-Dasa] | 0.359 | 98.8 | 48 | 0.85 nM and 0.849 nM | BCR–ABL protein level in tumor [8]: significantly downregulated; cell growth after drug removal [4]: sustained growth inhibition; tumor growth ([5]; 10 mg/kg): dramatically impeded tumor growth; also recorded: does not exhibit better antitumor effects than Dasa; also recorded: robust antitumor effects; pSTAT5 / STAT5 phosphorylation after drug withdrawal [6]: remained markedly diminished; body weight / tolerability ([7]; nude mice, 10 mg/kg i.p. every other day, 10 doses): did not significantly alter the body weight; also recorded: without overt drug toxicity; BCR–ABL protein level after drug withdrawal ([3]; 1 nM 2 days, washout, compound-free medium): remained markedly diminished; BCR–ABL degradation kinetics (cycloheximide chase) ([3]; 2.5 nM for 32 h, then cycloheximide): quickly reduced; DC50 ([3]; 48 h, listed as Arg-based PROTAC): ~0.85 nM; BCR–ABL degradation in combination with Lys-, Leu-, or Phe-PEG1-Dasa ([3]; Arg-PEG1-Dasa mixed with varying doses of second PROTAC): not further enhanced; ubiquitination of immunoprecipitated BCR–ABL [9]: displayed the ubiquitination of immunoprecipitated BCR–ABL |
| CC(C)C[C@@H](C=O)NC(=O)[C@H](CC(C)C)NC(=O)[C@H](CC(C)C)NC(=O)OCc1ccccc1 [MG132, reference compound] (Cbz-Leu-Leu-Leu-aldehyde) |  |  |  |  | effect on Arg-PEG1-Dasa–mediated degradation of BCR–ABL ([3]; MG132 10 μM or chloroquine 25 μM with Arg-PEG1-Dasa 1 nM, 48 h): blocked |
| Cc1nc(Nc2ncc(C(=O)Nc3c(C)cccc3Cl)s2)cc(N2CCN(CCOC(=O)CCOCCNC(=O)[C@@H](N)CC(C)C)CC2)n1 [Leu-PEG1-Dasa] | 0.22 | 91.2 | 12 | 0.479 nM | DC50 ([3]; 48 h, listed as Leu-based PROTAC): 0.48 nM |

Reference: article PMC10388202, “Single amino acid–based PROTACs trigger degradation of the oncogenic kinase BCR–ABL in chronic myeloid leukemia (CML)” (The Journal of Biological Chemistry, 2023)
